Data taken from patent US10202361B2, “Pyridazinones as herbicides” (E I DU PONT DE NEMOURS AND COMPANY, priority 2014, dated 2019).

Key:
Assay in all cases: Test E pre-/postemergence greenhouse herbicide test
Assay type in all cases: in vivo
Conditions in all cases: Preemergence, scale 0 to 100
[1] = system: dayflower, VA (Virginia dayflower, Commelina virginica)
Excerpt: (§1) Seeds of plant species selected from corn (Zea mays), soybean (Glycine max), lambsquarters (Chenopodium album), poinsettia, wild (wild poinsettia, Euphorbia heterophylla), pigweed, palmer (palmer pigweed, Amaranthus palmeri), waterhemp (common waterhemp, Amaranthus rudis), surinam grass (Brachiaria decumbens), crabgrass, large (large crabgrass Digitaria sanguinalis), crabgrass, Brazil (Brazilian crabgrass, Digitaria horizontalis), panicum, fall (fall panicum, Panicum dichotomiflorum), foxtail, giant (giant foxtail, Setaria faberii), foxtail, green (green foxtail, Setaria viridis), goosegrass (Eleusine indica), johnsongrass (Sorghum halepense), ragweed (common ragweed, Ambrosia elatior), barnyardgrass (Echinochloa crus-galli), sandbur (southern sandbur, Cenchrus echinatus), arrowleaf sida (Sida rhombifolia), ryegrass, Italian (Italian ryegrass, Lolium multiflorum), dayflower, VA (Virginia dayflower, Commelina virginica), field bindweed (Convolvulus arvensis), cocklebur (common cocklebur, Xanthium strumarium), morningglory (Ipomoea coccinea), nightshade (eastern black nightshade, Solanum ptycanthum), kochia (Kochia scoparia), nutsedge, yellow (yellow nutsedge, Cyperus esculentus), smartweed (ladysthumb smartweed, Polygonum persicaria), velvetleaf (Abutilon theophrasti), and beggarticks (hairy beggarticks, Bidens pilosa), were planted into a silt loam soil and treated preemergence with test chemicals formulated in a non-phytotoxic solvent mixture which included a surfactant.
(§2) At the same time, plants from these crop and weed species and also waterhemp_RES1, (ALS & Triazine resistant common waterhemp, Amaranthus rudis), and waterhemp_RES2, (ALS & HPPD resistant common waterhemp, Amaranthus rudis) were planted in pots containing Redi-Earth® planting medium (Scotts Company, 14111 Scottslawn Road, Marysville, Ohio 43041) comprising spaghnum peat moss, vermiculite, wetting agent and starter nutrients were treated with postemergence applications of test chemicals formulated in the same manner. Plants ranged in height from 2 to 18 cm for postemergence treatments (1- to 4-leaf stage). Treated plants and controls were maintained in a greenhouse for 14 to 21 d, after which time all species were compared to controls and visually evaluated. Plant response ratings, summarized in Table E, are based on a scale of 0 to 100 where 0 is no effect and 100 is complete control. A dash (-) response means no test result.

[2] = system: johnsongrass (Sorghum halepense)
Excerpt: as §1, §2

corn (Zea mays) = system: corn (Zea mays)
Excerpt: as §1, §2

[3] = system: foxtail, green (green foxtail, Setaria viridis)
Excerpt: as §1, §2

soybean (Glycine max) = system: soybean (Glycine max)
Excerpt: as §1, §2

[4] = system: lambsquarters (Chenopodium album)
Excerpt: as §1, §2

[5] = system: waterhemp (common waterhemp, Amaranthus rudis)
Excerpt: as §1, §2

[6] = system: pigweed, palmer (palmer pigweed, Amaranthus palmeri)
Excerpt: as §1, §2

[7] = system: arrowleaf sida (Sida rhombifolia)
Excerpt: as §1, §2

[8] = system: beggarticks (hairy beggarticks, Bidens pilosa)
Excerpt: as §1, §2

[9] = system: sandbur (southern sandbur, Cenchrus echinatus)
Excerpt: as §1, §2

[10] = system: morningglory (Ipomoea coccinea)
Excerpt: as §1, §2

[11] = system: crabgrass, Brazil (Brazilian crabgrass, Digitaria horizontalis)
Excerpt: as §1, §2

kochia (Kochia scoparia) = system: kochia (Kochia scoparia)
Excerpt: as §1, §2

[12] = system: barnyardgrass (Echinochloa crus-galli)
Excerpt: as §1, §2

CCOc1cc(=O)n(-c2ccc(F)cc2)nc1Cc1ccnc(C(F)(F)F)c1 [Compound 25, 5-ethoxy-2-(4-fluorophenyl)-6-[[2-(trifluoromethyl)-4-pyridinyl]methyl]-3 (2H)-pyridazinone]
Plant response rating: Dayflower, VA ([1]; 8 g ai/ha): 0
Plant response rating: Dayflower, VA ([1]; 16 g ai/ha): 0
Plant response rating: Dayflower, VA ([1]; 31 g ai/ha): 15
Plant response rating: Dayflower, VA ([1]; 62 g ai/ha): 20
Plant response rating: Dayflower, VA ([1]; 125 g ai/ha): 70
Plant response rating: Johnsongrass ([2]; 8 g ai/ha): 0
Plant response rating: Johnsongrass ([2]; 16 g ai/ha): 0
Plant response rating: Johnsongrass ([2]; 31 g ai/ha): 10
Plant response rating: Johnsongrass ([2]; 62 g ai/ha): 35
Plant response rating: Johnsongrass ([2]; 125 g ai/ha): 65
Plant response rating: Corn (corn (Zea mays); 8 g ai/ha): 0
Plant response rating: Corn (corn (Zea mays); 16 g ai/ha): 10
Plant response rating: Corn (corn (Zea mays); 31 g ai/ha): 25
Plant response rating: Corn (corn (Zea mays); 62 g ai/ha): 40
Plant response rating: Corn (corn (Zea mays); 125 g ai/ha): 35
Plant response rating: Foxtail, Green ([3]; 8 g ai/ha): 0
Plant response rating: Foxtail, Green ([3]; 16 g ai/ha): 5
Plant response rating: Foxtail, Green ([3]; 31 g ai/ha): 35
Plant response rating: Foxtail, Green ([3]; 62 g ai/ha): 90
Plant response rating: Foxtail, Green ([3]; 125 g ai/ha): 100
Plant response rating: Soybean (soybean (Glycine max); 8 g ai/ha): 0
Plant response rating: Soybean (soybean (Glycine max); 16 g ai/ha): 0
Plant response rating: Soybean (soybean (Glycine max); 31 g ai/ha): 0
Plant response rating: Soybean (soybean (Glycine max); 62 g ai/ha): 20
Plant response rating: Soybean (soybean (Glycine max); 125 g ai/ha): 30
Plant response rating: Lambsquarters ([4]; 8 g ai/ha): 65
Plant response rating: Lambsquarters ([4]; 16 g ai/ha): 98
Plant response rating: Lambsquarters ([4]; 31 g ai/ha): 100
Plant response rating: Lambsquarters ([4]; 62 g ai/ha): 100
Plant response rating: Lambsquarters ([4]; 125 g ai/ha): 100
Plant response rating: Waterhemp ([5]; 8 g ai/ha): 35
Plant response rating: Waterhemp ([5]; 16 g ai/ha): 50
Plant response rating: Waterhemp ([5]; 31 g ai/ha): 100
Plant response rating: Waterhemp ([5]; 62 g ai/ha): 100
Plant response rating: Waterhemp ([5]; 125 g ai/ha): 100
Plant response rating: Pigweed, Palmer ([6]; 8 g ai/ha): 0
Plant response rating: Pigweed, Palmer ([6]; 16 g ai/ha): 95
Plant response rating: Pigweed, Palmer ([6]; 31 g ai/ha): 95
Plant response rating: Pigweed, Palmer ([6]; 62 g ai/ha): 100
Plant response rating: Pigweed, Palmer ([6]; 125 g ai/ha): 100
Plant response rating: Arrowleaf Sida ([7]; 8 g ai/ha): 0
Plant response rating: Arrowleaf Sida ([7]; 16 g ai/ha): 5
Plant response rating: Arrowleaf Sida ([7]; 31 g ai/ha): 5
Plant response rating: Arrowleaf Sida ([7]; 62 g ai/ha): 35
Plant response rating: Arrowleaf Sida ([7]; 125 g ai/ha): 40
Plant response rating: Beggarticks ([8]; 8 g ai/ha): 0
Plant response rating: Beggarticks ([8]; 16 g ai/ha): 0
Plant response rating: Beggarticks ([8]; 31 g ai/ha): 0
Plant response rating: Beggarticks ([8]; 62 g ai/ha): 0
Plant response rating: Beggarticks ([8]; 125 g ai/ha): 15
Plant response rating: Sandbur ([9]; 8 g ai/ha): 0
Plant response rating: Sandbur ([9]; 16 g ai/ha): 0
Plant response rating: Sandbur ([9]; 31 g ai/ha): 20
Plant response rating: Sandbur ([9]; 62 g ai/ha): 30
Plant response rating: Sandbur ([9]; 125 g ai/ha): 60
Plant response rating: Morningglory ([10]; 8 g ai/ha): 0
Plant response rating: Morningglory ([10]; 16 g ai/ha): 0
Plant response rating: Morningglory ([10]; 31 g ai/ha): 5
Plant response rating: Morningglory ([10]; 62 g ai/ha): 50
Plant response rating: Morningglory ([10]; 125 g ai/ha): 65
Plant response rating: Crabgrass, Brazil ([11]; 8 g ai/ha): 0
Plant response rating: Crabgrass, Brazil ([11]; 16 g ai/ha): 75
Plant response rating: Crabgrass, Brazil ([11]; 31 g ai/ha): 98
Plant response rating: Crabgrass, Brazil ([11]; 62 g ai/ha): 100
Plant response rating: Crabgrass, Brazil ([11]; 125 g ai/ha): 100
Plant response rating: Kochia (kochia (Kochia scoparia); 8 g ai/ha): 40
Plant response rating: Kochia (kochia (Kochia scoparia); 16 g ai/ha): 50
Plant response rating: Kochia (kochia (Kochia scoparia); 31 g ai/ha): 70
Plant response rating: Kochia (kochia (Kochia scoparia); 62 g ai/ha): 100
Plant response rating: Kochia (kochia (Kochia scoparia); 125 g ai/ha): 95
Plant response rating: Barnyardgrass ([12]; 8 g ai/ha): 0
Plant response rating: Barnyardgrass ([12]; 16 g ai/ha): 5
Plant response rating: Barnyardgrass ([12]; 31 g ai/ha): 15
Plant response rating: Barnyardgrass ([12]; 62 g ai/ha): 35
Plant response rating: Barnyardgrass ([12]; 125 g ai/ha): 60
